For ten compounds, inhibition results are on record in US8680159B2, “Bradykinin 1 receptor modulating compounds” (Gruenenthal GmbH, priority 2010, dated 2014).

In assay [1] the target is T1, human B1R receptor (CHO K1 cells stably transfected with the human B1R gene) (Homo sapiens, UniProt P46663).
T1 construct: expressed in transfected cells; host or cells: CHO K1 cells (Chinese hamster ovary), stably transfected
T1 sequence (P46663 1-353): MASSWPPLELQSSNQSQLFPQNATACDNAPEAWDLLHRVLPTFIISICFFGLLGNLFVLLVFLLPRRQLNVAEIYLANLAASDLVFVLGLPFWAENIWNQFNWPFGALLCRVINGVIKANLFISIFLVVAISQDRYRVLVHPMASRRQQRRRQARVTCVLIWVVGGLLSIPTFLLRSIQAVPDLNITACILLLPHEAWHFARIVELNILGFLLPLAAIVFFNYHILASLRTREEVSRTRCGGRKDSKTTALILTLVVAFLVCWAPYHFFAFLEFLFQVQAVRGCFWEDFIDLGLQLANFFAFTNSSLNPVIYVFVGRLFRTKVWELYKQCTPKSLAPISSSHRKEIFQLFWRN
As to the kind of experiment: Functional study on the bradykinin receptor 1 (B1R), Ca2+ fluorescence (Fluo-4) FLIPR/Novostar assay, hB1R cells. Type of assay: cell-based. An outline of the steps:
(§1)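 Test compounds (10 μM) were added first and the Ca2+ rise was scored as % activation against Lys-Des-Arg9-bradykinin (≥50 nM, human) or Des-Arg9-bradykinin (≥1 μM, rat). After 6-20 min, the matching agonist was given at its EC80, and % inhibition relative to maximal achievable inhibition was calculated.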

Assay [2] has as its target T2, B1R receptor of the rat (CHO K1 cells stably transfected with the B1R gene of the rat) (Rattus norvegicus, UniProt P97583).
T2 construct: expressed in transfected cells; host or cells: CHO K1 cells (Chinese hamster ovary), stably transfected
T2 sequence (P97583 1-337): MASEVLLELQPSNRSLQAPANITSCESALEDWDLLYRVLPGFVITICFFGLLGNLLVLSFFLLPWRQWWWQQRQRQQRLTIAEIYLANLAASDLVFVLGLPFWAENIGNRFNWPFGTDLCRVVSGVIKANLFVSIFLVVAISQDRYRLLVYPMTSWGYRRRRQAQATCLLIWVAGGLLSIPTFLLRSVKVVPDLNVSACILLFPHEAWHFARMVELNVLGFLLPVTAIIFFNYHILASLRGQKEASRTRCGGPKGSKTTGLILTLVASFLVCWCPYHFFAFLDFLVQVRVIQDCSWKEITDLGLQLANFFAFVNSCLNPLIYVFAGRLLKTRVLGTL
Kind of assay: Functional study on the bradykinin receptor 1 (B1R), Ca2+ fluorescence (Fluo-4) FLIPR/Novostar assay, rB1R cells. The conditions noted are these: CHO-K1, 10 μM. It is filed as cell-based. An outline of the steps: as §1

[3] abbreviates: CHO-K1, read-out: % inhibition (human B1R) at 10 μM.
[4] abbreviates: read-out: % inhibition (rat B1R) at 10 μM.
The mark [5] stands for this setting: CHO-K1, read-out: % Inhibition (h-B1R) at 10 μM.
Setting [6] is: read-out: % Inhibition (r-B1R) at 10 μM.

Like-named read-outs stand apart in the source and are kept apart here.

Usually inhibition stands for the change of the read-out against control, counted positive when it falls. Regarding `CN(C(=O)c1ccc2c(c1)[C@H](NC(=O)c1ccccc1Cl)CC2)C1CCN(c2ccncc2C(F)(F)F)CC1` [Example H-183, (3R)-3-[(2-Chloro-benzoyl)amino]-N-methyl-N-[1-[3-(trifluoromethyl)-pyridin-4-yl]-piperidin-4-yl]-2,3-dihydro-1H-indene-5-carboxylic acid amide], the inhibition at 10 µM in assay [1] (setting [3]) was determined as 93%; in assay [2] (setting [4]), 101%.
Take `CN(CC1CCN(c2ccncn2)CC1)C(=O)c1ccc2c(c1)[C@H](NC(=O)c1ccccc1Cl)CC2` [Example H-136, (3R)-3-[(2-Chloro-benzoyl)amino]-N-methy-N-[(1-pyrimidin-4-yl-piperidin-4-yl)-methyl]-2,3-dihydro-1H-indene-5-carboxylic acid amide]: the inhibition at 10 µM in assay [1] (setting [3]) was 41%; in assay [2] (setting [4]), 107%.
Turning to `CN(C(=O)c1ccc2c(c1)C(NC(=O)c1cccc(Cl)c1Cl)CC2)C1CCN(c2ccc3cnccc3c2)CC1` (centres unmarked) [CC_H-52, 3-[(2,3-Dichloro-benzoyl)amino]-N-(1-isoquinolin-6-yl-piperidin-4-yl)-N-methyl-2,3-dihydro-1H-indene-5-carboxylic acid amide], the inhibition at 10 µM in assay [1] (setting [5]) came out at 99%; in assay [2] (setting [6]), 98%.
Taken in the same sequence, the figures for `CN(C(=O)c1ccc2c(c1)C(NC(=O)c1ccccc1Cl)CC2)C1CCN(c2ccncc2)CC1` (centres unmarked) [CC_H-24, 3-[(2-Chloro-benzoyl)amino]-N-methyl-N-(1-pyridin-4-yl-piperidin-4-yl)-2,3-dihydro-1H-indene-5-carboxylic acid amide] were 100% and 105%.
Consider `CCN(C(=O)c1ccc(F)cc1Cl)[C@@H]1CCc2ccc(C(=O)N(C)C3CCN(c4cc(C)nc(C)n4)CC3)cc21` [Example H-167, (3R)-3-[(2-Chloro-4-fluoro-benzoyl)-ethyl-amino]-N-[1-(2,6-dimethyl-pyrimidin-4-yl)-piperidin-4-yl]-N-methyl-2,3-dihydro-1H-indene-5-carboxylic acid amide], for which the inhibition at 10 µM in assay [1] (setting [3]) amounted to 100%; in assay [2] (setting [4]), 109%.
On the same counts, the results for `CN(C(=O)c1ccc2c(c1)[C@H](NC(=O)C1(c3ccccc3F)CC1)CC2)C1CCN(c2ccncc2)CC1` [Example H-46, (3R)-3-[[1-(2-Fluorophenyl)-cyclopropanecarbonyl]amino]-N-methyl-N-(1-pyridin-4-yl-piperidin-4-yl)-2,3-dihydro-1H-indene-5-carboxylic acid amide] are 100% and 103%.
On the same counts, the results for `Cc1cc(N2CCC(CN(C)C(=O)c3ccc4c(c3)CC[C@H]4N3Cc4cccc(Cl)c4C3=O)CC2)ccn1` [Example H-52, (1R)-1-(4-Chloro-3-oxo-1,2-dihydro-isoindol-2-yl)-N-methyl-N-[[1-(2-methyl-pyridin-4-yl)-piperidin-4-yl]-methyl]-2,3-dihydro-1H-indene-5-carboxylic acid amide] are 98% and 73%.
Regarding `CN(C(=O)c1ccc2c(c1)[C@H](NC(=O)c1ccccc1Cl)CC2)C1CCN(c2ccncc2F)CC1` [Example H-117, (3R)-3-[(2-Chloro-benzoyl)amino]-N-[1-(3-fluoro-pyridin-4-yl)-piperidin-4-yl]-N-methyl-2,3-dihydro-1H-indene-5-carboxylic acid amide], the inhibition at 10 µM came to 99% in assay [1] (setting [3]) and 105% in assay [2] (setting [4]).
Regarding `CN(C(=O)c1ccc2c(c1)CCC2NC(=O)c1ccccc1Cl)C1CCN(c2ccncc2)CC1` (centres unmarked) [CC_H-68, 1-[(2-Chloro-benzoyl)amino]-N-methyl-N-(1-pyridin-4-yl-piperidin-4-yl)-2,3-dihydro-1H-indene-5-carboxylic acid amide], the inhibition at 10 µM in assay [1] (setting [5]) worked out at 96%; in assay [2] (setting [6]) it was 87%.
Consider `CN(C(=O)c1ccc2c(c1)CCC2NC(=O)c1sccc1Cl)C1CCN(c2ccncc2)CC1` (centres unmarked) [CC_H-13, 3-Chloro-N-[5-[methyl-(1-pyridin-4-yl-piperidin-4-yl)-carbamoyl]-2,3-dihydro-1H-inden-1-yl]-thiophene-2-carboxylic acid amide], for which the inhibition at 10 µM in assay [1] (setting [5]) is 100%; in assay [2] (setting [6]), 78%.
